From the supplement of paper PMC11061612

Columns and labels:
AZD4320 = compound: CN(CC[C@H](CSC1=CC=CC=C1)NC2=C(C=C(C=C2)S(=O)(=O)NC(=O)C3=CC=C(C=C3)N4CCC(CC4)[C@H](C5=CC=CC=C5C6=CC=C(C=C6)Cl)O)S(=O)(=O)C(F)(F)F)CCO [AZD4320]; conditions: max 1 µM
Method in brief: (§1)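 Plates with 1536 wells received cancer cell lines in 7.5 μl of DMEM/F12 or RPMI containing 10% FBS. After 24 hours at 37°C and 5% CO2, cells were dosed for 72 hours with final DMSO typically 0.2%, and viability was read by CellTiter-Glo 2.0 luminescence scaled between blank-well and DMSO-well means. The single-agent IC50 was taken from a logistic fit of the dose responses made with a non-linear mixed effects model, that logistic curve having two parameters.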

Doxorubicin = compound: COc1cccc2c1C(=O)c1c(O)c3c(c(O)c1C2=O)C[C@@](O)(C(=O)CO)C[C@@H]3O[C@H]1C[C@H](N)[C@H](O)[C@H](C)O1 [Doxorubicin]; conditions: max 1 µM
Method in brief: as §1

Gefitinib = compound: COc1cc2ncnc(Nc3ccc(F)c(Cl)c3)c2cc1OCCCN1CCOCC1 [Gefitinib]; conditions: max 10 µM
Method in brief: as §1

Venetoclax = compound: CC1(C)CCC(CN2CCN(c3ccc(C(=O)NS(=O)(=O)c4ccc(NCC5CCOCC5)c([N+](=O)[O-])c4)c(Oc4cnc5[nH]ccc5c4)c3)CC2)=C(c2ccc(Cl)cc2)C1 [Venetoclax]; conditions: max 1 µM
Method in brief: as §1

Dasatinib = compound: CC1=C(C(=CC=C1)Cl)NC(=O)C2=CN=C(S2)NC3=CC(=NC(=N3)C)N4CCN(CC4)CCO [Dasatinib]; conditions: max 2 µM
Method in brief: as §1

Palbociclib = compound: CC(=O)c1c(C)c2cnc(Nc3ccc(N4CCNCC4)cn3)nc2n(C2CCCC2)c1=O [Palbociclib]; conditions: max 10 µM
Method in brief: as §1

AZD5363 = compound: C1CN(CCC1(C(=O)N[C@@H](CCO)C2=CC=C(C=C2)Cl)N)C3=NC=NC4=C3C=CN4 [AZD5363]; conditions: max 10 µM
Method in brief: as §1

Olaparib = compound: O=C(c1cc(Cc2n[nH]c(=O)c3ccccc23)ccc1F)N1CCN(C(=O)C2CC2)CC1 [Olaparib]; conditions: max 10 µM
Method in brief: as §1

Taselisib = compound: Cc1nc(-c2cn3c(n2)-c2ccc(-c4cnn(C(C)(C)C(N)=O)c4)cc2OCC3)n(C(C)C)n1 [Taselisib]; conditions: max 10 µM
Method in brief: as §1

Paclitaxel = compound: CC(=O)O[C@H]1C(=O)[C@@]2(C)[C@H]([C@H](OC(=O)c3ccccc3)[C@]3(O)C[C@H](OC(=O)[C@H](O)[C@@H](NC(=O)c4ccccc4)c4ccccc4)C(C)=C1C3(C)C)[C@]1(OC(C)=O)CO[C@@H]1C[C@@H]2O [Paclitaxel]; conditions: max 3 µM
Method in brief: as §1

AZD0156 = compound: CN(C)CCCOc1ccc(-c2ccc3ncc4c(c3c2)n(C2CCOCC2)c(=O)n4C)cn1 [AZD0156]; conditions: max 3 µM
Method in brief: as §1

AZD5991 = compound: Cc1c2c(nn1C)CSCc1cc(n(C)n1)CSc1cc(c3ccccc3c1)OCCCc1c(C(=O)O)n(C)c3c-2c(Cl)ccc13 [AZD5991]; conditions: max 1 µM
Method in brief: as §1

Lapatinib = compound: CS(=O)(=O)CCNCc1ccc(-c2ccc3ncnc(Nc4ccc(OCc5cccc(F)c5)c(Cl)c4)c3c2)o1 [Lapatinib]; conditions: max 10 µM
Method in brief: as §1

AZD6738 = compound: C[C@@H]1COCCN1C2=NC(=NC(=C2)C3(CC3)[S@](=N)(=O)C)C4=C5C=CNC5=NC=C4 [AZD6738]; conditions: max 10 µM
Method in brief: as §1

AZD5153 = compound: COc1nnc2ccc(N3CCC(c4ccc(OCCN5CCN(C)C(=O)[C@H]5C)cc4)CC3)nn12 [AZD5153]; conditions: max 1 µM
Method in brief: as §1

Carboplatin = compound: C1CC(C1)(C(=O)[O-])C(=O)[O-].N.N.[Pt+2] [Carboplatin]; conditions: max 10 µM
Method in brief: as §1

MK-2206 = compound: NC1(c2ccc(-c3nc4ccn5c(=O)[nH]nc5c4cc3-c3ccccc3)cc2)CCC1 [MK-2206]; conditions: max 10 µM
Method in brief: as §1

Etoposide = compound: COc1cc([C@@H]2c3cc4c(cc3[C@@H](O[C@@H]3O[C@@H]5CO[C@@H](C)O[C@H]5[C@H](O)[C@H]3O)[C@H]3COC(=O)[C@H]23)OCO4)cc(OC)c1O [Etoposide]; conditions: max 10 µM
Method in brief: as §1

Trametinib = compound: CC(=O)Nc1cccc(-n2c(=O)n(C3CC3)c(=O)c3c(Nc4ccc(I)cc4F)n(C)c(=O)c(C)c32)c1 [Trametinib]; conditions: max 1 µM
Method in brief: as §1

[1] = compound: O=C(Nc1ccc2[nH]nc(-c3ccncc3)c2c1)[C@@H]1CCN(CC(=O)N2CCN(c3ccc(-c4ncccn4)cc3)CC2)C1; conditions: max 5 µM
Method in brief: as §1

Crizotinib = compound: C[C@@H](Oc1cc(-c2cnn(C3CCNCC3)c2)cnc1N)c1c(Cl)ccc(F)c1Cl [Crizotinib]; conditions: max 10 µM
Method in brief: as §1

Savolitinib = compound: C[C@@H](c1ccc2nccn2c1)n1nnc2ncc(-c3cnn(C)c3)nc21 [Savolitinib]; conditions: max 1 µM
Method in brief: as §1

AZD7648 = compound: Cc1cc2ncnn2cc1Nc1ncc2c(n1)n(C1CCOCC1)c(=O)n2C [AZD7648]; conditions: max 10 µM
Method in brief: as §1

AZD8186 = compound: C[C@@H](Nc1cc(F)cc(F)c1)c1cc(C(=O)N(C)C)cc2c(=O)cc(N3CCOCC3)oc12 [AZD8186]; conditions: max 10 µM
Method in brief: as §1

Prexasertib = compound: COc1cccc(OCCCN)c1-c1cc(Nc2cnc(C#N)cn2)n[nH]1 [Prexasertib]; conditions: max 1 µM
Method in brief: as §1

Alisertib = compound: COc1cc(Nc2ncc3c(n2)-c2ccc(Cl)cc2C(c2c(F)cccc2OC)=NC3)ccc1C(=O)O [Alisertib]; conditions: max 10 µM
Method in brief: as §1

5-Fluorouracil = compound: O=c1[nH]cc(F)c(=O)[nH]1 [5-Fluorouracil]; conditions: max 20 µM
Method in brief: as §1

AZD1390 = compound: CC(C)n1c(=O)n(C)c2cnc3cc(F)c(-c4ccc(OCCCN5CCCCC5)nc4)cc3c21 [AZD1390]; conditions: max 0.3 µM
Method in brief: as §1

AZD1775 = compound: C=CCn1c(=O)c2cnc(Nc3ccc(N4CCN(C)CC4)cc3)nc2n1-c1cccc(C(C)(C)O)n1 [AZD1775]; conditions: max 3 µM
Method in brief: as §1

SN-38 = compound: CCc1c2c(nc3ccc(O)cc13)-c1cc3c(c(=O)n1C2)COC(=O)[C@]3(O)CC [SN-38]; conditions: max 0.3 µM
Method in brief: as §1

AZD2811 = compound: CCN(CCO)CCCOc1ccc2c(Nc3cc(CC(=O)Nc4cccc(F)c4)[nH]n3)ncnc2c1 [AZD2811]; conditions: max 1 µM
Method in brief: as §1

SRA737 = compound: N#Cc1cnc(Nc2cc(NC[C@H]3CNCCO3)c(C(F)(F)F)cn2)cn1 [SRA737]; conditions: max 10 µM
Method in brief: as §1

Gemcitabine = compound: Nc1ccn([C@@H]2O[C@H](CO)[C@@H](O)C2(F)F)c(=O)n1 [Gemcitabine]; conditions: max 0.3 µM
Method in brief: as §1

Selumetinib = compound: Cn1cnc2c(F)c(Nc3ccc(Br)cc3Cl)c(C(=O)NOCCO)cc21 [Selumetinib]; conditions: max 10 µM
Method in brief: as §1

SG3199 = compound: CC1=CN2[C@@H](C1)C=NC3=CC(=C(C=C3C2=O)OC)OCCCCCOC4=C(C=C5C(=C4)N=C[C@@H]6CC(=CN6C5=O)C)OC [SG3199]; conditions: max 0.001 µM
Method in brief: as §1

Cell Line	IC50, cell viability 72 h (AZD4320) [nM]	IC50, cell viability 72 h (Doxorubicin) [nM]	IC50, cell viability 72 h (Gefitinib) [nM]	IC50, cell viability 72 h (Venetoclax) [nM]	IC50, cell viability 72 h (Dasatinib) [nM]	IC50, cell viability 72 h (Palbociclib) [nM]	IC50, cell viability 72 h (AZD5363) [nM]	IC50, cell viability 72 h (Olaparib) [nM]	IC50, cell viability 72 h (Taselisib) [nM]	IC50, cell viability 72 h (Paclitaxel) [nM]	IC50, cell viability 72 h (AZD0156) [nM]	IC50, cell viability 72 h (AZD5991) [nM]	IC50, cell viability 72 h (Lapatinib) [nM]	IC50, cell viability 72 h (AZD6738) [nM]	IC50, cell viability 72 h (AZD5153) [nM]	IC50, cell viability 72 h (Carboplatin) [nM]	IC50, cell viability 72 h (MK-2206) [nM]	IC50, cell viability 72 h (Etoposide) [nM]	IC50, cell viability 72 h (Trametinib) [nM]	IC50, cell viability 72 h [1] [nM]	IC50, cell viability 72 h (Crizotinib) [nM]	IC50, cell viability 72 h (Savolitinib) [nM]	IC50, cell viability 72 h (AZD7648) [nM]	IC50, cell viability 72 h (AZD8186) [nM]	IC50, cell viability 72 h (Prexasertib) [nM]	IC50, cell viability 72 h (Alisertib) [nM]	IC50, cell viability 72 h (5-Fluorouracil) [nM]	IC50, cell viability 72 h (AZD1390) [nM]	IC50, cell viability 72 h (AZD1775) [nM]	IC50, cell viability 72 h (SN-38) [nM]	IC50, cell viability 72 h (AZD2811) [nM]	IC50, cell viability 72 h (SRA737) [nM]	IC50, cell viability 72 h (Gemcitabine) [nM]	IC50, cell viability 72 h (Selumetinib) [nM]	IC50, cell viability 72 h (SG3199) [nM]
NTERA-2-cl-D1 (Other Solid Carcinomas)	> 1000	23.6	> 10000	> 1000	> 2000	> 10000	> 10000	> 10000	> 10000	415	> 3000	> 1000	> 10000	> 10000	532	> 10000	> 10000	> 10000	> 1000	> 5000	> 10000	> 1000	> 10000	> 10000	> 1000	453	> 20000	> 300	> 3000	5.92	> 1000	> 10000	> 300	> 10000	> 1
KNS-62 (Squamous Cell Lung Carcinoma)	> 1000	> 1000	> 10000	> 1000	> 2000	> 10000	6590	> 10000	> 10000	273	> 3000	> 1000	> 10000	> 10000	632	> 10000	> 10000	> 10000	276	4140	> 10000	> 1000	> 10000	> 10000	342	> 10000	> 20000	> 300	> 3000	53.3	> 1000	> 10000	> 300	> 10000	> 1
MDA-MB-175-VII (Breast Carcinoma)	> 1000	> 1000	1150	> 1000	> 2000	> 10000	4360	> 10000	1790	> 3000	> 3000	> 1000	514	> 10000	> 1000	> 10000	3990	> 10000	463	794	> 10000	> 1000	> 10000	> 10000	> 1000	> 10000	> 20000	> 300	> 3000	110	> 1000	> 10000	> 300	> 10000	> 1
SW1463 (Colorectal Carcinoma)	> 1000	> 1000	3270	> 1000	> 2000	7120	> 10000	> 10000	> 10000	> 3000	> 3000	> 1000	> 10000	> 10000	> 1000	> 10000	> 10000	> 10000	78.4	> 5000	> 10000	> 1000	> 10000	> 10000	288	> 10000	> 20000	> 300	> 3000	> 300	> 1000	> 10000	> 300	4950	> 1
